Measurements as given in patent US20070287738A1, “Substituted Cyanopyridines as protein kinase inhibitors” (priority 2006, published 2007).

Biological target: T1, human PKCθ full length enzyme (Homo sapiens, UniProt Q04759)
T1 construct: human PKCθ full length enzyme (Panvera Cat# P2996); purchased Panvera P2996
Assay: PKCθ IMAP assay
Type: biochemical
Conditions: full length enzyme 1 nM; ATP 6 μM; peptide 100 nM; FP readout; average value
Method: The materials used include the following: human PKCθ full length enzyme (Panvera Cat# P2996); substrate peptide: 5FAM-RFARKGSLRQKNV-OH (Molecular Devices, RP7032); ATP (Sigma Cat # A2383); DTT (Pierce, 20291); 5× kinase reaction buffer (Molecular Devices, R7209); 5× binding buffer A (Molecular Devices, R7282), 5× binding buffer B (Molecular Devices, R7209); IMAP Beads (Molecular Devices, R7284); and 384-well plates (Corning Costar, 3710).
The reaction buffer was prepared by diluting the 5× stock reaction buffer and adding DTT to obtain a concentration of 3.0 mM. The binding buffer was prepared by diluting the 5× binding buffer A. A master mix solution was prepared using a 90% dilution of the reaction buffer containing 2× ATP (12 uM) and 2× peptide (200 nm). Compounds were diluted in DMSO to 20× of the maximum concentration for the IC50 measurement. 27 μl of the master mix solution for each IC50 curve was added to the first column in a 384-well plate and 3 μl of 20× compound in DMSO was added to each well. The final concentration of compound was 2× and 10% DMSO. DMSO was added to the rest of the master mix to increase the concentration to 10%. 10 μl of the master mix containing 10% DMSO was added to the rest of the wells on the plate except the 2nd column. 20 μl was transferred from the first column to the 2nd column.
The compounds were serially diluted in 2:1 ratio starting from the 2nd column. A 2× (2 nM) PKCθ solution was made in the reaction buffer. 10 μl of the PKCθ solution was added to every well to achieve these final concentrations: PKCθ—1 nM; ATP—6 μM; peptide—100 nM; DMSO—5%. Samples were incubated for 25 minutes at room temperature. The binding reagent was prepared by diluting the beads in 1× binding buffer to 800:1. 50 μl of the binding reagent was added to every well and incubated for 20 minutes. FP was measured using Envision2100 (PerkinElmer Life Sciences). Wells with no ATPs and wells with no enzymes were used as controls.

T1 sequence (Q04759 whole entry): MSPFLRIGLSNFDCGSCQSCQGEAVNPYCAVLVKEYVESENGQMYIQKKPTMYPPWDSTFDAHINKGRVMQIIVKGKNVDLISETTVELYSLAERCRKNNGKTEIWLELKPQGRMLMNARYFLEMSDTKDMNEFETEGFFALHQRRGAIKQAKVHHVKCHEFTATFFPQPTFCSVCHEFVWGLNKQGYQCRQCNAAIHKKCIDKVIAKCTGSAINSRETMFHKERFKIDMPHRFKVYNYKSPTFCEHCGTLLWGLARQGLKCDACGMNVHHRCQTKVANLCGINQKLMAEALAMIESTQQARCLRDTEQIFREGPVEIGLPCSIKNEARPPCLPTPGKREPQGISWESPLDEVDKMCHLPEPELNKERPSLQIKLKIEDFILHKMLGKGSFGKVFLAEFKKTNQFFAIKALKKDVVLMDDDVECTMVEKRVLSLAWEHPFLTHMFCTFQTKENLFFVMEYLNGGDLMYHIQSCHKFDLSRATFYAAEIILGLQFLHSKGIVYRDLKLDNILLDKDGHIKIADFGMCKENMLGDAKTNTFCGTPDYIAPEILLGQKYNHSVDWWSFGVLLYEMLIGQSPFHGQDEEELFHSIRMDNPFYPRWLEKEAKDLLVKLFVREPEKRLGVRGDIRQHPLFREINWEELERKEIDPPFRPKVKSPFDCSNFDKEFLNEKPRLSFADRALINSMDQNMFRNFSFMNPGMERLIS

Structure (SMILES) | IC50
COc1ccc(-c2cncc(C#N)c2Nc2cccc(NC(C)=O)c2)cc1OC [Compound 127, N-(3-{[3-cyano-5-(3,4-dimethoxyphenyl)pyridin-4-yl]amino}phenyl) acetamide] | 570 nM
COc1ccc(-c2cncc(C#N)c2Nc2cccc(NS(C)(=O)=O)c2)cc1OC [Compound 129, N-(3-{[3-cyano-5-(3,4-dimethoxyphenyl)pyridin-4-yl]amino}phenyl)methanesulfonamide] | 36000 nM
COc1cccc(Nc2c(C#N)cncc2-c2ccc(N(C)C)cc2)c1 [Compound 130, 5-[4-(dimethylamino)phenyl]-4-[(3-methoxyphenyl)amino]nicotinonitrile] | 800 nM
CN(C)c1ccc(-c2cncc(C#N)c2Nc2ccc(C#N)cc2)cc1 [Compound 133, 4-[(4-cyanophenyl)amino]-5-[4-(dimethylamino)phenyl]nicotinonitrile] | 30000 nM
CN(C)c1ccc(-c2cncc(C#N)c2Nc2cccc([N+](=O)[O-])c2)cc1 [Compound 152, 5-[4-(dimethylamino)phenyl]-4-[(3-nitrophenyl)amino]nicotinonitrile] | 7840 nM
COc1cccc(Nc2c(C#N)cncc2-c2cccc(OC)c2)c1 [Compound 154, 5-(3-methoxyphenyl)-4-[(3-methoxyphenyl)amino]nicotinonitrile] | 1730 nM
COc1cccc(-c2cncc(C#N)c2Nc2cccc(F)c2)c1 [Compound 155, 4-[(3-fluorophenyl)amino]-5-(3-methoxyphenyl)nicotinonitrile] | 1570 nM
COc1cccc(-c2cncc(C#N)c2Nc2ccc(C(=O)O)cc2)c1 [Compound 156, 4-{[3-cyano-5-(3-methoxyphenyl)pyridin-4-yl]amino}benzoic acid] | 46400 nM
COc1cccc(-c2cncc(C#N)c2Nc2ccc(F)c(F)c2)c1 [Compound 158, 4-[(3,4-difluorophenyl)amino]-5-(3-methoxyphenyl)nicotinonitrile] | 2400 nM
COc1ccc(-c2cncc(C#N)c2Nc2cccc(OC[C@@H](N)Cc3ccccc3)c2)cc1OC [Compound 161, 4-[(3-{[(2S)-2-amino-3-phenylpropyl]-oxy}-phenyl)amino]-5-(3,4-dimethoxyphenyl)nicotinonitrile] | 820 nM
N#Cc1cncc(-c2cc3cc(C=O)ccc3s2)c1Nc1cc(O)ccc1Cl [Compound 162, 4-[(2-chloro-5-hydroxyphenyl)amino]-5-(5-formyl-1-benzothein-2-yl)nicotinonitrile] | 30 nM
Cc1c(N)ccc(Nc2c(C#N)cncc2-c2cc3cc(CN4CCCCC4)ccc3s2)c1C [Compound 165, 4-[(4-amino-2,3-dimethylphenyl)amino]-5-[5-(piperidin-1-ylmethyl)-1-benzothien-2-yl]nicotinonitrile] | 650 nM
Cc1cc(Nc2c(C#N)cncc2-c2cc3cc(CN4CCCCC4)ccc3s2)ccc1N [Compound 166, 4-[(4-amino-3-methylphenyl)amino]-5-[5-(piperidin-1-ylmethyl)-1-benzothien-2-yl]nicotinonitrile] | 1060 nM
COc1ccc(Cl)c(Nc2c(C#N)cncc2-c2cc3cc(CN4CCCCC4)ccc3o2)c1 [Compound 167, 4-[(2-chloro-5-methoxyphenyl)amino]-5-[5-(piperidin-1-ylmethyl)-1-benzofuran-2-yl]nicotinonitrile] | 730 nM
N#Cc1cncc(-c2cc3cc(CN4CCCCC4)ccc3o2)c1Nc1cc(O)ccc1Oc1ccccc1 [Compound 169, 4-[(5-hydroxy-2-phenoxyphenyl)amino]-5-[5-(piperidin-1-ylmethyl)-1-benzofuran-2-yl]nicotinonitrile] | 650 nM
COc1ccc(-c2cncc(C#N)c2NCc2cccc(CN)c2)cc1OC [Compound 170, 4-{[3-(aminomethyl)benzyl]amino}-5-(3,4-dimethoxyphenyl)nicotinonitrile] | 11900 nM
COc1ccc(Nc2c(C#N)cncc2-c2cc3cc(CN4CCCCC4)ccc3o2)c(C)c1 [Compound 172, 4-[(4-methoxy-2-methylphenyl)amino]-5-[5-(piperidin-1-ylmethyl)-1-benzofuran-2-yl]nicotinonitrile] | 160 nM

Further lines, results first:

IC50 | Structure (SMILES)
35000 nM | COc1ccc(-c2cncc(C#N)c2Nc2cccc(N(C)C(C)=O)c2)cc1OC [Compound 128, N-(3-{[3-cyano-5-(3,4-dimethoxyphenyl)pyridin-4-yl]amino}phenyl)-N-methylacetamide]
710 nM | CN(C)c1ccc(-c2cncc(C#N)c2Nc2cccc(F)c2)cc1 [Compound 131, 5-[4-(dimethylamino)phenyl]-4-[(3-fluorophenyl)amino]nicotinonitrile]
2030 nM | CN(C)c1ccc(-c2cncc(C#N)c2Nc2ccc(F)c(F)c2)cc1 [Compound 134, 4-[(3,4-difluorophenyl)amino]-5-[4-(dimethylamino)phenyl]nicotinonitrile]
9630 nM | COc1cccc(-c2cncc(C#N)c2Nc2cccc([N+](=O)[O-])c2)c1 [Compound 153, 5-(3-methoxyphenyl)-4-[(3-nitrophenyl)amino]nicotinonitrile]
> 95000 nM | COc1cccc(-c2cncc(C#N)c2Nc2ccc(C#N)cc2)c1 [Compound 157, 4-[(4-cyanophenyl)amino]-5-(3-methoxyphenyl)nicotinonitrile]
310 nM | COc1ccc(-c2cncc(C#N)c2Nc2cccc(O)c2)cc1OC [Compound 159, 5-(3,4-dimethoxyphenyl)-4-[(3-hydroxyphenyl)amino]nicotinonitrile]
5210 nM | COc1ccc(-c2cncc(C#N)c2Nc2cccc(OCCO)c2)cc1OC [Compound 160, 5-(3,4-dimethoxyphenyl)-4-{[3-(2-hydroxyethoxy)phenyl]amino}nicotinonitrile]
30 nM | N#Cc1cncc(-c2cc3cc(CN4CCCCC4)ccc3s2)c1Nc1cc(O)ccc1Cl [Compound 163, 4-[(2-chloro-5-hydroxyphenyl)amino]-5-[5-(piperidin-1-ylmethyl)-1-benzothien-2-yl]nicotinonitrile]
60 nM | N#Cc1cncc(-c2cc3cc(CN4CCCCC4)ccc3s2)c1Nc1cc(OCCO)ccc1Cl [Compound 164]
2040 nM | Cc1ccc(Cl)c(Nc2c(C#N)cncc2-c2cc3cc(CN4CCCCC4)ccc3o2)c1 [Compound 168, 4-[(2-chloro-5-methylphenyl)amino]-5-[5-(piperidin-1-ylmethyl)-1-benzofuran-2-yl]nicotinonitrile]
270 nM | N#Cc1cncc(-c2cc3cc(CN4CCCCC4)ccc3o2)c1Nc1cc(O)c(Cl)cc1Cl [Compound 171, 4-[(2,4-dichloro-5-hydroxyphenyl)amino]-5-[5-(piperidin-1-ylmethyl)-1-benzofuran-2-yl]nicotinonitrile]
